For series [1], the system named is L6 myotubes. Description: Glut4 translocation to the myotube surface (In-Cell Western). The series is classed as cell-based, rat. The procedure:
(§1) A) C2C12 myotubes were assayed for chymotrypsin-like proteasomal activity. […] C) Quantitation of the ICW in panel B. D) ICW for surface expression of Glut4 on L6 myotubes. E) ICW for insulin-induced incorporation of puromycin into C2C12 myotube surface proteins. F-G) High-content imaging and analysis of C2C12 myoblasts stained with a Mitotracker dye. H) Assay reproducibility from screening 22 compounds on two separate occasions. The Pearson correlation coefficient, r, and its associated p-value is indicated.
(§2) C2C12 myocytes were used in all assays, except in the Glut4 translocation assay where L6 rat myocytes were used. ICW, In-Cell Western. Also see Methods.
(§3) Physiologically, the effects of GCs on protein balance and Glut4 translocation vary in vivo depending upon the stressor. For example, GCs mediate atrophy in response to fasting but not exercise. […] To assess protein degradation, we measured chymotrypsin-like proteasomal activity (FIG. 2, A). The activating phosphorylation of AKT at Thr308 (pAKT) was measured using a LI-COR In-Cell Western assay (FIG. 2, B and C). The rate-limiting step in insulin-mediated glucose uptake is the translocation of the glucose transporter, Glut4, to the surface membrane, which we also measured by In-Cell Western without permeabilizing the myotubes (FIG. 2, D). Surface Sensing of Translation (SUnSET) (Schmidt et al., Nat Methods 6, 275-277, 2009) assay was used to measure protein synthesis by In-Cell Western, following treatment of myotubes with a low dose of puromycin, which incorporates into translating proteins, but at a low enough level to provide a readout for global protein synthesis (FIG. 2, E). Lastly, we developed a high-content imaging assay in myoblasts stained with a MitoTracker dye, so that individual mitochondrial networks could be visualized with adequate resolution to quantitate area, segmentation, branching, and fluorescence intensity which is a measure of mitochondrial membrane potential (ψm).

Series [2] concerns C2C12 myoblasts. Description: Mitochondrial potential, high-content imaging with MitoTracker dye. Format: cell-based, mouse. The procedure:
as §1
A) Each dot represents the effects of a compound in the indicated assays at 10 uM. N=4-6 from two different experiments. […] C) SR11466 is efficacious at inhibiting IL-6 secretion from A549 cells. C-E). […] D) Mitochondrial activity was measured in myoblasts using high content imaging with mitotracker dye after 24 treatment. New amino acid incorporation was measured with LICOR in cell western for puromycin (SunSet assay). E) top, MMTV-luciferase reporter data. N=3, mean+SEM. Bottom, Mineralization of primary human OBs was assayed after two weeks of differentiation from MSC and two weeks of mineralization. N=4, mean+SEM, 2-way ANOVA.
as §3

A short description of series [3]: Body weight change after an overnight fast. The series is classed as in vivo, C57BL/6 male mice. Conditions: 10 mg/kg Dex or SR16024, 50 mg/kg SR11466, single dose. The text has this:
A) The effects of all tested compounds on IL-1β-induced IL-6 production (x-axes) versus GR interaction with the indicated peptides. B-C) The effects of all tested compounds on the indicated GC-regulated phenotypes (x-axes) versus GR interaction with the CHD9_1023 and CENPR_1 peptides (y-axes). D-F) COC plots. Each point represents the Pearson correlation coefficient, r, between a distinct gene expression or GR-peptide interaction assay with assays indicated on the x and y axes. G) The effects of all tested compounds on IL-1β-induced IL-6 production (y-axes) versus insulin-induced protein synthesis. […] IL-β-induced IL-6 production by A549 cells treated with the indicated compounds was compared by AlphaLISA. […] Mice in panel K were subjected to a lactate-tolerance test (LTT).
We were also interested in whether the compounds would show dissociation between Glut4 translocation in skeletal muscle and gluconeogenesis in the liver, but enhanced glucose production is typically studied after weeks or months of GC treatment. However, we reasoned that an overnight fast should enable detection of effects after a single dose. […] Thus, profiling effects of GCs in the physiological context of nutrient deprivation allowed the discovery of two new types of glucocorticoids with improved profiles in skeletal muscle.

Series [4] has as its system C2C12 myotubes. Description: Insulin-induced protein synthesis (SUnSET, In-Cell Western) in C2C12 myotubes. Format: cell-based, mouse. The settings on record: for effect on insulin-induced protein synthesis: differentiated myotubes, nutrient-deprived, insulin challenge. The procedure: as §1, §2
(§4) To avoid such effects on myogenesis, we switched myoblasts to differentiation media, and then on day 4, added 10 μM cytarabine, a chemotherapy agent that kills dividing cells, and then adding GCs on day 6 or 7 and completing assays in day 8 (FIG. 8).
as §3

The subject of series [5] is C2C12 myotubes. Description: Protein degradation: chymotrypsin-like proteasomal activity in C2C12 myotubes. Format: cell-based, mouse. The procedure: as §1, §2, §4
as §3, with “Lastly, we developed a high-content imaging assay in myoblasts stained with a MitoTracker dye, so that individual mitochondrial networks could be visualized with adequate resolution to quantitate area, segmentation, branching, and fluorescence intensity which is a measure of mitochondrial membrane potential (ψm).” left out

Molecules are shown by their SMILES. “Also recorded” adds a separate entry of the source.

This is an account of results in patent US20230263808A1 (UNIVERSITY OF FLORIDA RESEARCH FOUNDATION, INCORPORATED, priority 2020, published 2023).

`CC#CC1(O)CCC2C3CCc4cc(C(=O)Nc5cccnc5C)ccc4C3C(OCc3ccccc3Cl)CC21C` (stereo not drawn) [SR16024]: the “effect on Glut4 translocation” value in series [1] is “no inhibition”. Moreover, the “effect on mitochondrial activity / potential” value in series [2] was “enhanced; also recorded: doubling; also recorded: anabolic profile in mitochondria”. Further, in series [3], the “preserving body mass after overnight fast” value is “slight weight sparing effect”. Besides, the “anabolic effect on protein synthesis in combination with Dex” value in series [4] (C2C12 myotubes, with Dex) is “right-shift in the dose curve; also recorded: Dex inhibits”. Also, the “effect on insulin-induced protein synthesis” value in series [4] is given as “doubling; also recorded: robustly stimulated protein synthesis”.
With `C=CCOC1CC2(C)C(CCC2(O)C#CC)C2CCc3cc(C(=O)Nc4cccnc4C)ccc3C12` (stereo not drawn) [SR11466], in series [5], the “effect on protein degradation (proteasomal)” value was “no effect”. Besides, the “effect on mitochondrial activity / potential” value in series [2] is listed as “enhanced”. In addition, the “preserving body mass after overnight fast” value in series [3] is “significantly better than Dex”. Besides, the “effect on insulin-induced protein synthesis” value in series [4] is given as “slightly anabolic”.
